From ChEMBL document CHEMBL6103652, “Niacin Ester Derivative of Brefeldin A as a Potential Dual-Target Arf1/BMX Inhibitor for Bladder Cancer” (J Nat Prod, 2025)
pIC50: −log10 of the molar value. Values after ≈ are worked out from the molar mass of the structure shown. Active and inactive are the calls of the source. The rule behind the calls is not given here.

Assays:
[1] = Clearance in Sprague-Dawley rat at 5 mg/kg, iv measured upto 24 hrs; type: ADME, organism-based; conditions: in vivo
T-24 [2] = experiment: Antiproliferative activity against human T24 cells assessed as inhibition of cell proliferation measured after 72 hrs by MTT assay; type: functional, cell-based; conditions: T-24, 72 h
T-24 [3] = experiment: Inhibition of cell migration in human T24 cells at 0.25 uM incubated for 12 hrs by scratch assay (reference value: 66 %); type: functional
[4] = Antiproliferative activity against […] MB49 cells assessed as inhibition of cell proliferation measured after 72 hrs by MTT assay; type: functional, cell-based; conditions: MB49, 72 h
A549 = experiment: Antiproliferative activity against human A549 cells assessed as inhibition of cell proliferation measured after 72 hrs by MTT assay; type: functional, cell-based; conditions: A549, 72 h
[5] = Toxicity in male C57BL/6 mouse allografted with mouse MB49 cells assessed as adverse effect at 1 mg/kg,iv bid measured after 14 days; type: organism-based; conditions: in vivo, 336 h, time 14 day
T-24 [6] = experiment: Induction of cell cycle arrest in human T24 cells assessed as accumulation of cells at G1 phase at 0.25 uM incubated for 24 hrs by RNase A/Propidium Iodide staining based flow cytometry analysis (reference value: 43.80 %); type: functional
[7] = Toxicity in ICR mouse assessed as body weight change at 688 mg/kg, IG administered once for 14 days; type: organism-based; conditions: in vivo, po, 336 h, time 14 day
[8] = Solubility of the compound in Solutol HS-15; type: physicochemical
T-24 [9] = experiment: Induction of cell cycle arrest in human T24 cells assessed as accumulation of cells at S phase at 0.25 uM incubated for 24 hrs by RNase A/Propidium Iodide staining based flow cytometry analysis (reference value: 31.27 %); type: functional
[10] = target: T1, Cytoplasmic tyrosine-protein kinase BMX (Homo sapiens) (UniProt P51813); experiment: Induction of thermal stabilization of BMX in human T24 cells at 48 to 68 degreeC at 0.13 to 0.50 uM incubated for 6 hrs by CETSA analysis; type: cell-based; conditions: dose 0.13-0.5 µM
T1 sequence (whole entry): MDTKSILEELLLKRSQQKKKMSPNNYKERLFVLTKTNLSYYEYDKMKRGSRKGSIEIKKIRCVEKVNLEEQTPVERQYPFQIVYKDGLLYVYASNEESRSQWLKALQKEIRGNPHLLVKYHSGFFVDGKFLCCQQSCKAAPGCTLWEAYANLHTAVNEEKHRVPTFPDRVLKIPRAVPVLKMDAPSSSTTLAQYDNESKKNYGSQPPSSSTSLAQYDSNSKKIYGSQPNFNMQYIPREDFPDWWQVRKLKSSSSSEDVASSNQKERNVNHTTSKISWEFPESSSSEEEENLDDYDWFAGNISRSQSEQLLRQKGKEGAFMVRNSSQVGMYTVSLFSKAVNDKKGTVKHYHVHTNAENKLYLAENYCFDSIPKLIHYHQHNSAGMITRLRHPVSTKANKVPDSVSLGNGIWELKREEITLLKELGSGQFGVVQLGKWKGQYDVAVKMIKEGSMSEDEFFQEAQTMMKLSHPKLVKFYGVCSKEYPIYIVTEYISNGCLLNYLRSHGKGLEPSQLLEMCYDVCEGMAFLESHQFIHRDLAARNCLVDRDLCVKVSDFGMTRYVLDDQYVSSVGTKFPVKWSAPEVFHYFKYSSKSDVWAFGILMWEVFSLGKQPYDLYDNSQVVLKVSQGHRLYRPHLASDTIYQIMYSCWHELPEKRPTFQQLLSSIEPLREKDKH

T-24 [11] = experiment: Inhibition of cell migration in human T24 cells at 0.25 uM incubated for 24 hrs by scratch assay (reference value: 88 %); type: functional; conditions: T-24, 24 h

clearance [1]: 68 mL/min/kg
pIC50 (A549): 6.64
solubility [8]: 2000 µg/mL (≈ 5.19 mM)
Activity [10]: Active
SMILES: C[C@H]1CCC/C=C/[C@@H]2C[C@H](O)C[C@H]2[C@H](OC(=O)c2cccnc2)/C=C/C(=O)O1
pIC50 (T-24 [2]): 6.66
wound closure at 0.25 µM (T-24 [3]): 17%
pIC50 [4]: 5.32
Activity [5]: Non-toxic
Activity (T-24 [6]): 48.88%
Activity [7]: Non-toxic
Activity (T-24 [9]): 29.56%
wound closure at 0.25 µM (T-24 [11]): 26%
